Measurements from patent publication US20100152044A1, “Plant growth regulation” (Bayer CropScience GmbH, priority 2004, published 2010).

How the values were obtained:
[1] = tested on: wheat (Triticum aestivum, variety TRISO); test: Root growth assay, seed treatment, wheat; assay type: in vivo; conditions: Root Growth of 100 is set as the standard, wet root weight 16 (±2) days post treatment
From the text: (§1) Plant roots are a highly proliferative tissue that allows an easy accessible, cheap and short term screening method for plant growth regulators. The results obtained can easily be transferred to the overall effects on a plant of plant growth regulators identified by such a system. By using this root assay one is enabled to determine the effect of a seed treatment to root growth and/or germination and/or changes in habitat of germinated plants in order to identify the possible use as a yield enhancer. Two seeds of wheat (Triticum aestivum, variety “TRISO”) or 1 seed of maize (Zea mays, variety “LORENZO”) per hole in a plastic tray which contains an architecture of 8×13 holes were placed on compost soil covered with sand. These seeds were treated with 100 μl/hole, which creates an application volume of approx. 1200 l/ha, of a compound solution at active ingredient rates equivalent to 100, 10 and 1 g a.i./ha of each compound using an robotic application system (Lizzy Spray Robotics). Six replicates in a row of each compound and concentration were done. The outer rim of the above defined plastic tray was untreated to avoid false negative effects and the middle row (No. 7) was used as untreated control. The treated seeds were allowed to dry for approx. 4 hours and subsequently covered with sand and watered. The trays were stored in climate chambers with 14 hours lighting at a temperature of 24° C. (±2) at daytime and 16° C. (±2) at night and relative humidity (rH) of 60% and daily watered. Assessments were done 16 (±2) days post treatment by counting the germinated plants and assessing the phytotoxicity symptoms and percentage. In addition, the roots were washed out and the shoots were cut directly above the seed and the wet roots were placed on dry paper towels for approximately 30 minutes and weighted afterwards. This procedure provides a similar grade of moisture to the roots so that a comparison of the weights is possible.
(§2) The effects observed concerning Root Growth given in column 2 (Root Growth of “100” is set as the standard) are directed to concentrations that are equivalent to 100, 10, 1 g a.i./ha, each.

[2] = tested on: maize (Zea mays, variety LORENZO); test: Root growth assay, seed treatment, maize; assay type: in vivo; conditions: Root Growth of 100 is set as the standard, wet root weight 16 (±2) days post treatment
From the text: as §1, §2

Row | SMILES | Root Growth ([1]; 1 g a.i./ha) | Root Growth ([1]; 10 g a.i./ha) | Root Growth ([1]; 100 g a.i./ha) | Root Growth ([2]; 1 g a.i./ha) | Root Growth ([2]; 10 g a.i./ha) | Root Growth ([2]; 100 g a.i./ha) | melting point [°C]
1 | O=C1NC(=O)C(c2c[nH]c3ccccc23)=C1c1c[nH]c2ccccc12 [Compound 1, 3,4-Di-(1H-indol-3-yl)pyrrole-2,5-dione] | 69 | 129 | 133 |  |  |  | 
2 | O=C1NC(=O)C(c2ccc(Cl)cc2)=C1Nc1ccc(C(=O)O)cc1 [Compound 1.19] | 148 | 183 | 91 |  |  |  | 
3 | Cc1ccc(NC2=C(c3ccc(Br)cc3)C(=O)NC2=O)cc1Cl [Compound 1.16] | 84 | 171 | 129 | 113 | 112 | 158 | 
4 | O=C1NC(=O)C(c2ccccc2)=C1Nc1ccc(OC(F)(F)F)cc1 [Compound 1.6, 3-Phenyl-4-(4-trifluoromethoxyphenylamino)pyrrole-2,5-dione] |  |  |  |  |  |  | 206
5 | O=C1NC(=O)C(c2ccccc2)=C1Nc1ccc(Cl)c(Cl)c1 [Compound 1.2, 3-(3,4-dichlorophenylamino)-4-phenylpyrrole-2,5-dione] |  |  |  | 130 | 117 | 141 | 242
6 | Cn1cc(C2=C(c3c4n(c5ccccc35)CCC(CN)C4)C(=O)NC2=O)c2ccccc21 (stereo not drawn) [Compound 12] | 126 | 150 | 141 |  |  |  | 
7 | O=C1NC(=O)C(c2cc(Cl)sc2Cl)=C1Nc1ccc(O)c(Cl)c1 [Compound 1.10] | 101 | 134 | 77 |  |  |  | 
8 | O=C1NC(=O)C(c2c(Cl)cccc2Cl)=C1Nc1cccc(Cl)c1 [Compound 1.20] |  |  |  | 142 | 114 | 125 | 
9 | O=C1NC(=O)C(c2ccccc2C(F)(F)F)=C1Nc1ccc(O)c(Cl)c1 [Compound 1.8] |  |  |  | 114 | 144 | 123 | 
10 | O=C1NC(=O)C(c2ccc(Cl)cc2)=C1Nc1ccc(O)c(C(=O)O)c1 [Compound 1.12] |  |  |  | 122 | 172 | 199 | 
11 | Cn1cc(C2=C(c3cn(CCCN)c4ccccc34)C(=O)NC2=O)c2ccccc21 [Compound 11] | 162 | 169 | 135 |  |  |  | 
12 | O=C1NC(=O)C(c2ccccc2)=C1Nc1cccc(Cl)c1 [Compound 1.1, 3-(3-Chlorophenylamino)-4-phenylpyrrole-2,5-dione] |  |  |  |  |  |  | 187
13 | CN(C)CCCn1cc(C2=C(c3c[nH]c4ccccc34)C(=O)NC2=O)c2ccccc21 [Compound 8] | 122 | 150 | 123 | 109 | 150 | 93 | 
